Experiment in all cases: growth of human tumour cells (NCI), 48 h
Experiment [1] deals with COLO 205.
The subject of experiment [2] is NCI-H460.
Experiment [3] deals with SK-MEL-28.
For experiment [4], the system named is A498.
Experiment [5] deals with K562.
The test system of experiment [6] is SW-620.
In experiment [7] the test system is HOP-92.
Experiment [8] has as its system MOLT-4.
The subject of experiment [9] is UACC-62.
In experiment [10] the test system is SNB-75.
For experiment [11], the system named is SN12C.
In experiment [12] the test system is UO-31.
In experiment [13] the test system is CCRF-CEM.
For experiment [14], the system named is A549.
The test system of experiment [15] is LOX IMVI.
For experiment [16], the system named is RXF 393.

The results in this text go back to ChEMBL document CHEMBL1201862, “PubChem BioAssay data set” (2004).

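Dose response: 5 concentrations. Exposure: 48 h. Format: 96-well plates. Endpoint: linear interpolation; highest concentration if not reached. The concentration for 50% growth inhibition is given as GI50.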 Calls of active or inactive are those of the source. No stated cut-off is given here; in the data, active = GI50 up to about 1.1 µM and inactive = higher.

As to `CC1=C(c2cc(C(=O)Nc3nccs3)nc(NC#N)n2)Sc2ccccc2N1`, the GI50 in [1], in [2], in experiment [3], in experiment [4], in [5] and in experiment [6] was > 100 µM (inactive) in each case. The GI50 was > 100 µM (inactive) in [7]; > 100 µM (inactive) in experiment [8]; > 100 µM (inactive) in experiment [9]; 87.3 µM (inactive) in [10]; > 100 µM (inactive) in [11]; > 100 µM (inactive) in experiment [12]. The values for the GI50 in experiment [13] and in experiment [14] were 79.1 µM (inactive) and > 100 µM (inactive), respectively.
With `COc1ccc2c(c1)[n+]([O-])c(-c1ccccc1)c(N)[n+]2[O-]`, the GI50 in experiment [1] is 20.4 µM (inactive); in experiment [2], 35.6 µM (inactive); in [3], 25 µM (inactive); in experiment [4], 69.3 µM (inactive); in [5], 45.2 µM (inactive); in experiment [6], 39.3 µM (inactive). For the same compound, the GI50 was 71.3 µM (inactive) in [8]; 30.3 µM (inactive) in experiment [9]; > 100 µM (inactive) in [10]; 44.1 µM (inactive) in [15]; 51.8 µM (inactive) in experiment [11]; 63.1 µM (inactive) in experiment [12]. Moreover, the GI50 in [13] is 53 µM (inactive); in experiment [14] it was 37.1 µM (inactive).
On to `CN(C(=N)c1ccccc1)c1ccccc1`, for which the GI50 in [1] is > 100 µM (inactive); in experiment [3] it was > 100 µM (inactive); in experiment [4] it was > 10 µM (inactive); in [5] it was > 100 µM (inactive); in experiment [6] it was > 100 µM (inactive); in experiment [7], 51.5 µM (inactive). The GI50 in experiment [8] was > 100 µM (inactive); in experiment [9], > 100 µM (inactive); in experiment [10], 47.6 µM (inactive); in experiment [15], 84.7 µM (inactive); in experiment [11], > 100 µM (inactive); in [12], > 100 µM (inactive). Besides, the GI50 in experiment [13] and in experiment [14] was > 100 µM (inactive) in each case.
Regarding `Cc1ccc(-c2c(N)[n+]([O-])c3ccccc3[n+]2[O-])cc1`, the GI50 was 15.2 µM (inactive) in experiment [1]; 18.7 µM (inactive) in experiment [2]; 6.52 µM (inactive) in experiment [3]; > 10 µM (inactive) in experiment [4]; 15 µM (inactive) in [5]; 5.25 µM (inactive) in experiment [6]. Also, the GI50 in experiment [7] was > 100 µM (inactive); in experiment [8], 45.2 µM (inactive); in [9], 7.18 µM (inactive); in experiment [10] it was 12.2 µM (inactive); in experiment [15] it was 11 µM (inactive); in experiment [11], 10.6 µM (inactive). Moreover, the GI50 in experiment [12] was 16.1 µM (inactive); in experiment [13], 47.4 µM (inactive); in experiment [14] it was 23.3 µM (inactive).
Regarding `Nc1ccc2ncc(Nc3ccc(Cl)c(Cl)c3)nc2c1`, the GI50 was 16.7 µM (inactive) in experiment [1]; 27.4 µM (inactive) in experiment [2]; 26.5 µM (inactive) in [3]; 18.1 µM (inactive) in experiment [5]; 35.2 µM (inactive) in experiment [6]; 13.6 µM (inactive) in experiment [7]. For the same compound, the GI50 in [8] was 17.7 µM (inactive); in experiment [16], 24.7 µM (inactive); in [9] it was 20.2 µM (inactive); in experiment [10], 16 µM (inactive); in experiment [15], 21.6 µM (inactive); in experiment [11] it was 36.4 µM (inactive). Further, the GI50 was 19.7 µM (inactive) in experiment [12], 19.7 µM (inactive) in [13] and 26.3 µM (inactive) in experiment [14].
`O=C(CSc1nnc(-c2ccc(/N=C\c3ccc(Cl)cc3)cc2)o1)Nc1ccccc1Cl`: the GI50 in [1], in [2], in experiment [3], in [5], in experiment [6] and in experiment [8] was > 100 µM (inactive) in each case. The GI50 is > 100 µM (inactive) in [16]; > 100 µM (inactive) in experiment [9]; > 100 µM (inactive) in [10]; > 100 µM (inactive) in experiment [15]; > 10 µM (inactive) in [11]; > 100 µM (inactive) in experiment [12]. For the same compound, the GI50 in experiment [13] and in experiment [14] was > 100 µM (inactive) in each case.
For the compound `NC(=O)NNC/C(Cl)=C(\Cl)C(=O)O`, the GI50 in [1], in [2], in experiment [3], in experiment [4], in experiment [5] and in [6] was > 100 µM (inactive) in each case. Besides, the GI50 in [8] was > 100 µM (inactive); in experiment [9], > 100 µM (inactive); in experiment [10] it was < 0.01 µM (active); in experiment [15] it was > 100 µM (inactive); in [11] it was > 100 µM (inactive); in experiment [12], > 100 µM (inactive). Besides, the GI50 in experiment [13] and in experiment [14] was > 100 µM (inactive) throughout.
As for `CC1(c2ccccc2)CC(c2ccccc2)=NO1` (stereo not given), the GI50 in [1], in [2], in [3], in [4], in experiment [5] and in experiment [6] was > 100 µM (inactive) in each case. Also, the GI50 in experiment [7], in experiment [8], in [9], in [10], in [11] and in experiment [12] was > 100 µM (inactive) throughout. Further, the GI50 in [13] and in experiment [14] was > 100 µM (inactive) each time.
Take `CC(=O)c1c(O)ccc2c1CC(CC=O)O2` (stereo not given): the GI50 in experiment [1] was > 100 µM (inactive); in experiment [2], > 100 µM (inactive); in experiment [3], > 100 µM (inactive); in [5] it was > 100 µM (inactive); in experiment [6] it was 43.9 µM (inactive); in [7], 34.3 µM (inactive). Also, the GI50 in experiment [8] is > 100 µM (inactive); in experiment [16], > 100 µM (inactive); in experiment [9], 28.8 µM (inactive); in [10], 42.1 µM (inactive); in experiment [15], 19.9 µM (inactive); in experiment [11], 58.9 µM (inactive). Also, the GI50 in [12] is 63.2 µM (inactive); in experiment [13], 74.8 µM (inactive); in experiment [14], > 100 µM (inactive).
Regarding `c1ccc(CCCC2Sc3cccc4cccc(c34)S2)cc1`, the GI50 in experiment [1], in experiment [2], in [3], in [5], in experiment [6] and in [7] was > 100 µM (inactive) throughout. The GI50 in experiment [16], in [9], in [10], in experiment [15], in [11] and in [12] was > 100 µM (inactive) throughout. For the same compound, the GI50 in experiment [13] and in experiment [14] was > 100 µM (inactive) throughout.
With `Cc1cc(=O)n2c3c(c4c(cc13)c(CO)cc(=O)n4C)OC2`, the GI50 in [1] is 16.5 µM (inactive); in experiment [2], 18 µM (inactive); in experiment [3], 18.8 µM (inactive); in experiment [4], 14.6 µM (inactive); in experiment [5] it was 5.56 µM (inactive); in [6] it was 5.71 µM (inactive). In addition, the GI50 is 24.4 µM (inactive) in experiment [7]; 12.5 µM (inactive) in experiment [9]; 19.9 µM (inactive) in experiment [10]; 6.85 µM (inactive) in [15]; 12.9 µM (inactive) in experiment [11]; 7.69 µM (inactive) in experiment [12]. Also, the GI50 is 9.46 µM (inactive) in experiment [13] and 36.1 µM (inactive) in [14].
Regarding `CCOC(=O)C(C(=O)OCC)=C1N[C@H](C(=O)OCC)CS1`, the GI50 in experiment [1], in experiment [2], in experiment [3], in [5], in experiment [6] and in experiment [8] was > 100 µM (inactive) in each case. The GI50 in experiment [16], in [9], in experiment [15], in [11], in [12] and in [13] was > 100 µM (inactive) throughout. Besides, the GI50 in experiment [14] is > 100 µM (inactive).
Turning to `COc1cc2c(cc1OC)/C(=C\c1ccccc1N)C(=O)OC2`, the GI50 in experiment [1] is 12 µM (inactive); in [2] it was 14.7 µM (inactive); in experiment [3], 17 µM (inactive); in experiment [5], 3.02 µM (inactive); in [6] it was 4 µM (inactive); in experiment [7] it was 12.4 µM (inactive). Moreover, the GI50 in [8] was 2.31 µM (inactive); in experiment [16] it was 3.79 µM (inactive); in [9], 16.3 µM (inactive); in experiment [10], 10.3 µM (inactive); in experiment [15], 2.11 µM (inactive); in experiment [11], 13.2 µM (inactive). Moreover, the GI50 was 15.5 µM (inactive) in [12], 2.05 µM (inactive) in experiment [13] and 32.1 µM (inactive) in [14].
As to `N#C/C(=C\c1ccc(O)c(O)c1)C(N)=S` [TYRPHOSTIN 47], the GI50 is 56 µM (inactive) in experiment [1]; 45.9 µM (inactive) in [2]; > 84.7 µM (inactive) in experiment [3]; > 100 µM (inactive) in [4]; 22.5 µM (inactive) in experiment [5]; 79.1 µM (inactive) in experiment [6]. Moreover, the GI50 in experiment [7] is > 58.3 µM (inactive); in experiment [8], 32.7 µM (inactive); in experiment [9], 81.5 µM (inactive); in experiment [10], 7.36 µM (inactive); in experiment [15] it was > 88.9 µM (inactive); in experiment [11] it was > 100 µM (inactive). Also, the GI50 is 98.9 µM (inactive) in experiment [12], 9.55 µM (inactive) in [13] and > 100 µM (inactive) in experiment [14].
